Measured values reported in the supplement of paper PMC10307832.

Columns and labels:
Assay in all cases: relative viability (nuclei count vs DMSO), 5 days (fraction); higher = more cells survive
Masitinib + Phenformin = compound: Cc1ccc(NC(=O)c2ccc(CN3CCN(C)CC3)cc2)cc1Nc1nc(-c2cccnc2)cs1 [Masitinib] + N=C(N)NC(=N)NCCc1ccccc1 [Phenformin] (partner 250 µM)
In short: (§1)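 Relative viability divides the nuclei count in treated wells by that in vehicle wells. Lung cancer cell lines were seeded in 1536-well plates, dosed by pin tool the next day, and fixed and stained after 5 days in one step with final 0.05% Triton X-100, 1% formaldehyde and 1 ug/ml Hoechst. Dosing was a single drug or a fixed anchor-drug dose plus five library-drug doses (not always all listed) in √10 steps, and values are medians of duplicate plates imaged at 4×.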

[1] = compound: CC1=CC(=CC=C1)NC2=NC(=CS2)C3=CC=NC=C3 + COc1cccc2cc(-c3nc([C@H]4CC[C@H](C(=O)O)CC4)n4ncnc(N)c34)[nH]c12 [OSI-027] (partner 0.5 µM)
In short: as §1

[2] = compound: CC1=CC(=CC=C1)NC2=NC(=CS2)C3=CC=NC=C3 + C[C@@H](Oc1cc(-c2cnn(C3CCNCC3)c2)cnc1N)c1c(Cl)ccc(F)c1Cl [Crizotinib] (partner 1 µM)
In short: as §1

Masitinib + Pemetrexed = compound: Cc1ccc(NC(=O)c2ccc(CN3CCN(C)CC3)cc2)cc1Nc1nc(-c2cccnc2)cs1 [Masitinib] + Nc1nc2[nH]cc(CCc3ccc(C(=O)N[C@@H](CCC(=O)O)C(=O)O)cc3)c2c(=O)[nH]1 [Pemetrexed] (partner 0.2 µM)
In short: as §1

UMC-11
relative viability (Masitinib + Phenformin; first compound 0.03162 µM): 0.331
relative viability (Masitinib + Phenformin; first compound 0.1 µM): 0.363
relative viability (Masitinib + Phenformin; first compound 0.3162 µM): 0.377
relative viability (Masitinib + Phenformin; first compound 1 µM): 0.338
relative viability ([1]; first compound 0.08 µM): 0.448
relative viability ([1]; first compound 0.253 µM): 0.512
relative viability ([1]; first compound 0.8 µM): 0.469
relative viability ([1]; first compound 2.53 µM): 0.461
relative viability ([1]; first compound 8 µM): 0.443
relative viability ([2]; first compound 0.08 µM): 0.602
relative viability ([2]; first compound 0.253 µM): 0.582
relative viability ([2]; first compound 0.8 µM): 0.544
relative viability ([2]; first compound 2.53 µM): 0.579
relative viability ([2]; first compound 8 µM): 0.72
relative viability (Masitinib + Pemetrexed; first compound 0.01 µM): 0.755
relative viability (Masitinib + Pemetrexed; first compound 0.03162 µM): 0.751
relative viability (Masitinib + Pemetrexed; first compound 0.1 µM): 0.783
relative viability (Masitinib + Pemetrexed; first compound 0.3162 µM): 0.813
relative viability (Masitinib + Pemetrexed; first compound 1 µM): 0.882
